Laboratory results: patent publication US12453725B2, “Treatment of inflammatory disease” (Celleron Therapeutics Limited, priority 2019, dated 2025)

Experiments:
MC38 tumours = experiment: Syngeneic MC38 tumour model; parameters: species or system C57BL/6 mice; conditions: mouse, in vivo
Excerpt: Syngeneic colorectal tumour xenograft Colon 26 model was induced in female BALB/c mice and MC38 model in C57BL/6 mice by subcutaneous injection of cell suspension into the flank following the anaesthetization by inhalation of isoflurane. Upon solid tumour formation Colon 26 animals were divided into six experimental groups treated respectively with: vehicle control (control), CXD101, anti-PD-1 mAb (BioXCell, USA), anti-CTLA4 mAb (BioXCell, USA), combination of CXD101 with anti-PD-1 antibody and combination of CXD101 with anti-CTLA4 antibody. MC38 animals were divided into four groups, without CTLA-4-based treatment. During the course of experiment animals were monitored twice daily and weighed three times a week. Mice in bad overall condition and/or tumour volume exceeding 1000 mm3 were euthanized. Tumour volume was calculated by two-dimensional measurement according to the formula: Tumour volume=(a×b^2)×0.5 in which a—represents the largest and, b—the perpendicular tumour diameter. The study was terminated on 36th day (Colon 26) or 48th day (MC38). All Colon 26 animal handling has been executed by Charles River Laboratories (Germany) personnel with compliance to all local and international laws and regulations. Experiments involving MC38 tumour model have been executed by Crown Bioscience San Diego (USA). CXD101 Clinical Trial in Combination with Nivolumab (CTL-101-023)

[1] = system: mouse colorectal colon26 cells; experiment: Proliferation of colon26 cells; type: cell-based; conditions: dose- and time-dependent
Description: Three human colorectal adenocarcinoma cell lines: SW620 (ATCC® CCL-227™), HCT-15 (ATCC® CCL-225™), LoVo (ATCC® CCL-229™), and one mouse colon carcinoma cell line: CT26 (ATCC® CRL-2638™) were obtained from ATCC. Human cell lines were cultured in DMEM (Lonza Group, Switzerland), while CT26 in RPMI (Biowest, France). The media were supplemented with 10% FBS and 1% penicillin-streptomycin (Lonza Group, Switzerland). Cells were cultured under standard conditions.
In order to assess the cytotoxicity of CXD101, cells were seeded onto 96-well plates overnight and the next day were dosed with CXD101 and incubated for 72 h or 120 h. Next, 100 μl of Thiazolyl Blue Tetrazolium Bromide (MTT, Sigma-Aldrich, USA) was added into a well (final concentration […]) and incubated for 2 h at 37° C. After that medium was discarded and formazan crystals were dissolved in 100 μl DMSO (VWR International, USA) by shaking for 15 minutes. Absorbance was read by Omega FLUOstar plate reader (BMG Labtech Ltd, Germany) at the 584 nm wavelength. Data were analysed and IC50 doses calculated in GraphPad Prism (GraphPad Software, USA).

histone H3 acetylation = experiment: Histone H3 acetylation, SW620 cells (western blot); type: cell-based, human; conditions: SW620, 72 hours
Description: Cell pellets were lysed in TNN buffer, for 30 minutes on ice and centrifuged for another 30 minutes at maximum speed at 4° C. Protein concentration was assessed by Bradford assay (Quick Start™ Bradford 1× Dye Reagent, Bio-Rad Laboratories, USA). After gel electrophoresis, proteins were transferred onto the PVDF membrane by means of Trans-Blot® Turbo™ Transfer System (Bio-Rad Laboratories, USA) and blocked by 1 h incubation in 5% skim milk (Merck Group, Germany) in PBST at RT. To confirm acetylation induced by CXD101, membranes were incubated with anti-H3 (ab1791, abcam) antibody, anti-H3Ack9 (ab10812, abcam) in case of CT26 cells, and for SW620 with H3Ack14 antibody (#7627, Cell Signaling) overnight, at 4° C. Next, membranes were washed and treated with secondary antibody for 1 h at RT. Chemiluminescent signals were detected by LICOR C-Digit (LI-COR Biosciences, USA), and the data quantified using ImageJ software (National Institutes of Health, USA).

colon26 cells = experiment: RNAseq, colon26 cells in vitro; type: cell-based, mouse
Excerpt: The RNAseq data was aligned to the reference M. musculus genome (mm10) with STAR aligner and analysed for differential expression. […] We further evaluated transcripts identified in the colon26 RNAseq at the single gene level, focusing on murine genes which are homologues of the immune-related genes identified in human SW620 cells, which included genes in the murine MHC H2 complex. A number of H2 genes including class I and class II genes were induced including H2-D1, DMA, DMB1 and EB1 (FIG. 6).
SW620 cells were seeded into 6-well plates and left to adhere overnight. Cells were treated with 1 μM, 10 μM of CXD101 for 48 h. CT26 cells were seeded onto 100 mm plates and treated with 2.7 μM and 10 μM CXD101 for 72 h. After treatment cells were harvested and total RNA extracted by means of Promega ReliaPrep™ RNA Cell Miniprep System (Promega, USA). RNA was dissolved in RNAse free water and stored in −80° C. for future analysis. RNA concentration was measured by NanoDrop 2000 (Thermo Fisher Scientific, USA). Samples were qualified for library preparation if […]. Library preparation with poly (A) enrichment was performed by BGI.

[2] = cited from earlier work
colon26 tumours = experiment: Immunohistochemistry of colon26 tumour sections; type: in vivo, Balb/c mice
Description: Tumours were harvested, embedded in paraffin blocks and cut into 5 μm sections. Antigen retrieval was achieved by incubating in sodium citrate. Sections were incubated with primary antibodies: anti-H3Ack9 (ab10812, abcam), anti-CD8 (ab203035, abcam), anti-CD4 (ab183685, abcam), anti-CD68 (GR300628, abcam), anti-CD163 (GR3232711, abcam and, anti-FoxP3 (14208S, New England Biolabs) and further stained with anti-rabbit secondary antibody (VECTASTAIN Elite ABC HRP Kit, Vector Laboratories Inc, USA) according to the manufacturer protocol. Signal was detected by DAB (3, 3-diaminobenzidine, Vector Laboratories Inc, USA) and sections were counterstained with haematoxylin (Hematoxylin solution Mayer's; pH 2.4, Merck Group, Germany). Pictures were taken using Leica DM2500 optical microscope (Leica Microsystems, Germany) and the signal was semi-quantified by means of ImageJ Fiji software (National Institutes of Health, USA, doi:10.1038/nmeth.2019).

[3] = colon26 in vitro, log 2 FC >1, FDR 1%
[4] = out of 1142 differentially expressed genes
[5] = relative to untreated control animals

Cc1nn(C)cc1CN1CCC(c2ccc(C(=O)Nc3ccccc3N)cc2)CC1 [CXD101, N-(2-aminophenyl)-4-(1-[(1,3-dimethyl-1H-pyrazol-4-yl)methyl]piperidin-4-yl)benzamide]
MC38 tumour response (MC38 tumours): marginal response
proliferation of colon26 cells [1]: inhibits proliferation
acetylation on histone H3 lysine (histone H3 acetylation): increased level of acetylation
number of DEGs in vitro (colon26 cells; colon26 cells): 2502
genes down-regulated (colon26 cells; [3]): 611
genes up-regulated (colon26 cells; [3]): 1891
immune-related DEGs, Immunome database (colon26 cells; [4]): 15%
immune-related DEGs, Import database (colon26 cells; [4]): 34%
immune-related DEGs, immunogenicity database (colon26 cells; [4]): 36%
patients with tumour reduction ([2]; T-cell lymphoma, follicular lymphoma, Hodgkin lymphoma): 63%
MTD ([2]; for 5 days in a 3-weekly cycle): 20 mg B.D.
CD68 macrophages (colon26 tumours; compared to untreated animals): reduced
CD163 macrophages (colon26 tumours; compared to untreated animals): reduced
change in Tregs (FoxP3) (colon26 tumours; mouse, in vivo): quite modest
level of CD4 lymphocytes in tumour (colon26 tumours; [5]): significant increase
level of CD8 lymphocytes in tumour (colon26 tumours; [5]): significant increase
nuclear H3K9 acetylation (colon26 tumours; treated vs untreated animals): increased levels
